Assay results published in ChEMBL document CHEMBL1137308 (J Med Chem, 2006).
Values after ≈ are worked out from the molar mass of the structure shown. Active and inactive are the calls of the source. No cut-off for these calls is given here.

Columns and labels:
Staphylococcus aureus [1] = assay: Antibacterial activity against Staphylococcus aureus SA2554; type: functional
Staphylococcus aureus [2] = assay: Antibacterial activity against Staphylococcus aureus SA2558; type: functional
Staphylococcus aureus [3] = assay: Antibacterial activity against methicillin-resistant Staphylococcus aureus SA1417; type: functional
Staphylococcus aureus [4] = assay: Antibacterial activity against ciprofolxacin-resistant Staphylococcus aureus SA2017; type: functional
Klebsiella pneumoniae [5] = assay: Antibacterial activity against Klebsiella pneumonia KP2; type: functional
Klebsiella pneumoniae [6] = assay: Antibacterial activity against Klebsiella pneumonia ESBL KP3729; type: functional
Providencia rettgeri = assay: Antibacterial activity against Providencia rettgeri PR9; type: functional
Pseudomonas aeruginosa = assay: Antibacterial activity against Pseudomonas aeruginosa PA7; type: functional
Escherichia coli [7] = assay: Antibacterial activity against Escherichia coli EC2026; type: functional
Escherichia coli [8] = assay: Antibacterial activity against Escherichia coli EC2549; type: functional
Haemophilus influenzae = assay: Antibacterial activity against Haemophilus influenzae HI3542; type: functional
Moraxella catarrhalis = assay: Antibacterial activity against Moraxella catarrhalis BC-3531; type: functional
Staphylococcus aureus [9] = assay: Antibacterial activity against Staphylococcus aureus SA1417; type: functional
Staphylococcus aureus [10] = assay: Antibacterial activity against Staphylococcus aureus UC-76 SA-1; type: functional
Staphylococcus aureus [11] = assay: Antibacterial activity against Staphylococcus aureus SA2552; type: functional
Enterococcus faecalis [12] = assay: Antibacterial activity against Enterococcus faecalis MGH2 EF1-1; type: functional
Enterococcus faecalis [13] = assay: Antibacterial activity against Enterococcus faecalis EF1-3524; type: functional
Enterococcus faecium = assay: Antibacterial activity against vancomycin-resistant Enterococcus faecium EF4-3489; type: functional
Streptococcus pneumoniae [14] = assay: Antibacterial activity against Streptococcus pneumonia SVI SP3; type: functional
Streptococcus pneumoniae [15] = assay: Antibacterial activity against quinolone-resistant Streptococcus pneumonia SP3763; type: functional
Streptococcus pyogenes [16] = assay: Antibacterial activity against Streptococcus pyogenes C203 SP1-1; type: functional
Escherichia coli [17] = assay: Antibacterial activity against Escherichia coli EC1-10; type: functional
Streptococcus pyogenes [18] = assay: Antibacterial activity against Streptococcus pyogenes […]; type: functional
Enterococcus faecalis [19] = assay: Antibacterial activity against Enterococcus faecalis […]; type: functional
Streptococcus pyogenes [20] = assay: Activity against po dosed mouse infected with Streptococcus pyogenes; type: functional; conditions: read-out: PD50
Enterococcus faecalis [21] = assay: Activity against po dosed mouse infected with Enterococcus faecalis; type: functional; conditions: read-out: PD50
Streptococcus pyogenes [22] = assay: Activity against sc dosed mouse infected with Streptococcus pyogenes; type: functional; conditions: read-out: PD50
Enterococcus faecalis [23] = assay: Activity against sc dosed mouse infected with Enterococcus faecalis; type: functional; conditions: read-out: PD50
DNA gyrase = DNA gyrase (Escherichia coli, UniProt P0AES4+P0AES6); assay: Inhibition of Escherichia coli gyrase; type: functional
Escherichia coli [24] = assay: Inhibition of Escherichia coli DNA synthesis; type: functional, organism-based
[25] = target: T1, DNA gyrase (Escherichia coli) (UniProt P0AES6+P0AES4); assay: Ability to inhibit DNA supercoiling activity of Escherichia coli gyrase; type: functional
[26] = target: T1, DNA gyrase (Escherichia coli); assay: Displacement of [14C]ciprofloxacin from Escherichia coli gyrase; type: protein-complex assay

SMILES	MIC (Staphylococcus aureus [1])	MIC (Staphylococcus aureus [2])	MIC (Staphylococcus aureus [3])	MIC (Staphylococcus aureus [4])	MIC (Klebsiella pneumoniae [5])	MIC (Klebsiella pneumoniae [6])	MIC (Providencia rettgeri)	MIC (Pseudomonas aeruginosa)	MIC (Escherichia coli [7])	MIC (Haemophilus influenzae)	MIC (Moraxella catarrhalis)	MIC (Staphylococcus aureus [9])	MIC (Staphylococcus aureus [10])	MIC (Staphylococcus aureus [11])	MIC (Enterococcus faecalis [12])	MIC (Enterococcus faecalis [13])	MIC (Enterococcus faecium)	MIC (Streptococcus pneumoniae [14])	MIC (Streptococcus pneumoniae [15])	MIC (Streptococcus pyogenes [16])	further results
COc1c(N2CCNC(C)C2)c(F)cc2c(=O)c(C(=O)O)cn(C3CC3)c12 (stereo not drawn) [GATIFLOXACIN]	0.125 µg/mL (≈ 0.333 µM)	4 µg/mL (≈ 10.7 µM)	0.125 µg/mL (≈ 0.333 µM)	8 µg/mL (≈ 21.3 µM)	0.06 µg/mL (≈ 0.16 µM)	8 µg/mL (≈ 21.3 µM)	0.5 µg/mL (≈ 1.33 µM)	0.5 µg/mL (≈ 1.33 µM)	< 0.06 µg/mL	0.015 µg/mL (≈ 0.04 µM)	0.03 µg/mL (≈ 0.0799 µM)	0.125 µg/mL (≈ 0.333 µM)	0.03 µg/mL (≈ 0.0799 µM)	0.125 µg/mL (≈ 0.333 µM)	0.5 µg/mL (≈ 1.33 µM)	16 µg/mL (≈ 42.6 µM)	32 µg/mL (≈ 85.2 µM)	0.125 µg/mL (≈ 0.333 µM)	4 µg/mL (≈ 10.7 µM)	0.5 µg/mL (≈ 1.33 µM)	MIC (Escherichia coli [8]): < 0.06 µg/mL; MIC (Escherichia coli [17]): 0.06 µg/mL (≈ 0.16 µM)
C[C@H]1COc2c(N3CCN(C)CC3)c(F)cc3c(=O)c(C(=O)O)cn1c23.C[C@H]1COc2c(N3CCN(C)CC3)c(F)cc3c(=O)c(C(=O)O)cn1c23.O [LEVOFLOXACIN]	0.5 µg/mL	8 µg/mL	0.25 µg/mL	8 µg/mL	0.03 µg/mL	8 µg/mL	0.5 µg/mL	0.5 µg/mL		0.008 µg/mL	0.03 µg/mL	0.25 µg/mL	0.125 µg/mL	0.25 µg/mL	1 µg/mL	32 µg/mL	64 µg/mL			0.5 µg/mL	
COc1c(N2CC[C@@H]([C@H](C)N)C2)c(F)cc2c(=O)n(N)c(=O)n(C3CC3)c12	0.25 µg/mL (≈ 0.662 µM)	0.5 µg/mL (≈ 1.32 µM)	0.25 µg/mL (≈ 0.662 µM)	1 µg/mL (≈ 2.65 µM)	8 µg/mL (≈ 21.2 µM)	8 µg/mL (≈ 21.2 µM)	4 µg/mL (≈ 10.6 µM)	8 µg/mL (≈ 21.2 µM)	4 µg/mL (≈ 10.6 µM)	0.25 µg/mL (≈ 0.662 µM)	1 µg/mL (≈ 2.65 µM)	0.5 µg/mL (≈ 1.32 µM)	0.13 µg/mL (≈ 0.344 µM)	0.5 µg/mL (≈ 1.32 µM)	0.13 µg/mL (≈ 0.344 µM)	0.25 µg/mL (≈ 0.662 µM)	1 µg/mL (≈ 2.65 µM)	0.03 µg/mL (≈ 0.0795 µM)	0.06 µg/mL (≈ 0.159 µM)	0.03 µg/mL (≈ 0.0795 µM)	MIC (Escherichia coli [8]): 0.13 µg/mL (≈ 0.344 µM); MIC (Streptococcus pyogenes [18]): 0.03 µg/mL (≈ 0.0795 µM); MIC (Enterococcus faecalis [19]): 0.25 µg/mL (≈ 0.662 µM); ED50 (Streptococcus pyogenes [20]): 3.1 mg/kg; ED50 (Enterococcus faecalis [21]): 38 mg/kg; ED50 (Streptococcus pyogenes [22]): 1.2 mg/kg; ED50 (Enterococcus faecalis [23]): 11 mg/kg; IC50 (DNA gyrase): 600 nM; MIC (Escherichia coli [17]): 2 µg/mL (≈ 5.3 µM)
C[C@H]1NCc2cc(-c3ccc4c(=O)c(C(=O)O)cn(C5CC5)c4c3OC(F)F)ccc21 [GARENOXACIN]	0.03 µg/mL (≈ 0.0704 µM)	2 µg/mL (≈ 4.69 µM)	0.03 µg/mL (≈ 0.0704 µM)	2 µg/mL (≈ 4.69 µM)	0.06 µg/mL (≈ 0.141 µM)	32 µg/mL (≈ 75 µM)	0.06 µg/mL (≈ 0.141 µM)	1 µg/mL (≈ 2.35 µM)	0.03 µg/mL (≈ 0.0704 µM)	0.015 µg/mL (≈ 0.0352 µM)	0.03 µg/mL (≈ 0.0704 µM)	0.06 µg/mL (≈ 0.141 µM)	0.015 µg/mL (≈ 0.0352 µM)	0.03 µg/mL (≈ 0.0704 µM)	0.125 µg/mL (≈ 0.293 µM)	4 µg/mL (≈ 9.38 µM)	8 µg/mL (≈ 18.8 µM)	0.03 µg/mL (≈ 0.0704 µM)	1 µg/mL (≈ 2.35 µM)	0.06 µg/mL (≈ 0.141 µM)	MIC (Escherichia coli [8]): 0.008 µg/mL (≈ 0.0188 µM); MIC (Escherichia coli [17]): 0.25 µg/mL (≈ 0.586 µM)
O=C(O)c1cn(C2CC2)c2cc(N3CCNCC3)c(F)cc2c1=O [CIPROFLOXACIN]	2 µg/mL (≈ 6.04 µM)	64 µg/mL (≈ 193 µM)	0.5 µg/mL (≈ 1.51 µM)	> 64 µg/mL			0.06 µg/mL (≈ 0.181 µM)	0.06 µg/mL (≈ 0.181 µM)		0.008 µg/mL (≈ 0.0241 µM)	0.03 µg/mL (≈ 0.0905 µM)	0.5 µg/mL (≈ 1.51 µM)	0.13 µg/mL (≈ 0.392 µM)		0.5 µg/mL (≈ 1.51 µM)	32 µg/mL (≈ 96.6 µM)	> 64 µg/mL	1 µg/mL (≈ 3.02 µM)	64 µg/mL (≈ 193 µM)	0.5 µg/mL (≈ 1.51 µM)	
Cc1c(N2CC[C@@H]([C@H](C)N)C2)c(F)cc2c(=O)n(N)c(=O)n(C3CC3)c12	0.13 µg/mL (≈ 0.36 µM)	0.25 µg/mL (≈ 0.692 µM)	0.125 µg/mL (≈ 0.346 µM)	0.5 µg/mL (≈ 1.38 µM)	1 µg/mL (≈ 2.77 µM)	2 µg/mL (≈ 5.53 µM)	2 µg/mL (≈ 5.53 µM)	4 µg/mL (≈ 11.1 µM)	1 µg/mL (≈ 2.77 µM)	0.125 µg/mL (≈ 0.346 µM)	0.25 µg/mL (≈ 0.692 µM)	0.125 µg/mL (≈ 0.346 µM)	0.06 µg/mL (≈ 0.166 µM)	0.25 µg/mL (≈ 0.692 µM)	0.125 µg/mL (≈ 0.346 µM)	0.25 µg/mL (≈ 0.692 µM)	1 µg/mL (≈ 2.77 µM)	0.015 µg/mL (≈ 0.0415 µM)	0.06 µg/mL (≈ 0.166 µM)	0.015 µg/mL (≈ 0.0415 µM)	Activity (Escherichia coli [24]): Active; MIC (Escherichia coli [8]): 0.03 µg/mL (≈ 0.083 µM); MIC (Streptococcus pyogenes [18]): 0.015 µg/mL (≈ 0.0415 µM); MIC (Enterococcus faecalis [19]): 0.06 µg/mL (≈ 0.166 µM); ED50 (Streptococcus pyogenes [20]): 1.4 mg/kg; ED50 (Enterococcus faecalis [21]): 19 mg/kg; ED50 (Streptococcus pyogenes [22]): 0.27 mg/kg; ED50 (Enterococcus faecalis [23]): 4.2 mg/kg; Activity [25]: Active; Activity [26]: Active; IC50 (DNA gyrase): 200 nM; MIC (Escherichia coli [17]): 1 µg/mL (≈ 2.77 µM)
